The nature of data set [1]: Toxicity against brine shrimp. It counts as organism-based. As to conditions: artemia, in vivo.
The next data set has as its system A549. In words: Cytotoxicity against human A549 cells. As to conditions: read-out: ED50 (the source's name). It counts as functional.
The subject of the next data set is MCF7. The experiment in a line: Cytotoxicity against human MCF7 cells. It counts as functional. As to conditions: read-out: ED50 (the source's name).
A further data set concerns HT-29. In words: Cytotoxicity against human HT-29 cells. It counts as functional. As to conditions: read-out: ED50 (the source's name).

Values after ≈ are worked out from the molar mass of the structure shown.

Broadly, the LC50 is the concentration lethal to half of the exposed cells or organisms. Read a low LC50 as a more lethal substance. Turning to `COc1cc([C@@H]2O[C@@H](c3cc(OC)c(OC)c(OC)c3)[C@H](C)[C@H]2C)cc(OC)c1OC` [GRANDISIN], the LC50 in data set [1] is 21 µg/mL (≈ 48.6 µM). For the same compound, the EC50 in the data set with A549, with MCF7 and in the data set with HT-29 was more than 10 µg/mL each time.

The record behind these values is ChEMBL document CHEMBL1150209, “(-)-Grandisin form Cryptocarya crassinervia” (J Nat Prod, 1991).
